Test system: T. cruzi trypomastigotes
Assay: T. cruzi viability, resazurin reduction
Type: cell-based, Trypanosoma cruzi
Details: Trypanosoma cruzi, 2.5 µM; read-out: viability, T.cruzi (2.5 µM)
Procedure: T. cruzi (Y strain) trypomastigotes were passaged in liver infusion broth media supplemented with tryptose, NaCl, Na2HPO4, KCl, glucose, hemin, Pen-Strep (1%), 10% FCS (pH: 7.2) and kept at 28°C.
(§1) Viability of T. brucei brucei BSF and T. cruzi trypomastigotes was assayed with fluorescence resazurin reduction assay, essentially as described above. […] Next, selected compounds were tested at 2.5 μM concentration, and promising compounds subjected to 18 concentrations dose response analyses. AN3057 and AmB were used as a control drug in T. brucei and T. cruzi, respectively.

`N[C@@H](Cc1ccccc1)[C@@H](O)CNc1ccc(C(F)(F)F)cc1` [LTC-1027, (2S,3S)-3-Amino-4-phenyl-1-((4-(trifluoromethyl)phenyl)amino)butan-2-ol] and `N[C@@H](Cc1ccccc1)[C@@H](O)CNc1ccc(OC(F)(F)F)cc1` [LTC-1028, (2S,3S)-3-Amino-4-phenyl-1-((4-(trifluoromethoxy)phenyl)amino)butan-2-ol] are within error of each other in viability at 2.5 µM: 61.8 ± 2.34% for the first, 61 ± 0.78% for the second.

Same assay, conditions: Trypanosoma cruzi, 25 µM; read-out: viability, T.cruzi (25 µM)

`N[C@@H](Cc1ccccc1)[C@@H](O)CNc1ccc(C(F)(F)F)cc1` [LTC-1027, (2S,3S)-3-Amino-4-phenyl-1-((4-(trifluoromethyl)phenyl)amino)butan-2-ol] and `N[C@@H](Cc1ccccc1)[C@@H](O)CNc1ccc(OC(F)(F)F)cc1` [LTC-1028, (2S,3S)-3-Amino-4-phenyl-1-((4-(trifluoromethoxy)phenyl)amino)butan-2-ol] are within error of each other in viability at 25 µM: 12 ± 0.47% for the first, 12.4 ± 0.9% for the second.

Test system: L. major axenic amastigotes
Assay: L. major axenic amastigote viability, resazurin reduction
Details: Leishmania major, read-out: viability, L.major amastigote (25 µM)
Procedure: L. major LV561(MHOM/IL/67/LRC-L137 JERICHO II) amastigotes were passaged in Grace insect medium supplemented with NaHCO3, 0.1% amikin and 20% of FCS (pH: 5.4) and kept at 33°C.
Exponential growth phase promastigotes of L. major or L. infantum and axenic amastigotes (L. major) were harvested and seeded in 384 well plates (white, non-transparent, tissue culture treated, flat bottom; Corning) (0.5x10^5 cells per well). Compounds were pre-dispensed into the plate with an Echo 650 acoustic dispenser (Beckman Coulter). After 72h incubation, resazurin was added (1:10 v/v) from a […] stock in PBS, followed by incubation for six hours. Then, fluorescence intensity was measured using a microplate reader (Synergy H1, BioTek) with excitation filter: 550 nm and emission filter: 590 nm. Efficient compounds were selected for the next round of viability assay with 2.5 μM concentrations of the compounds. […] All experiments were performed with AmB as a positive control drug in parallel.
Axenic amastigotes, the relevant form that persists in the infected host, were generated in the lab through established procedures, employing harsh pH (pH 5) and high temperature (33°C) conditions.

Going from `N[C@@H](Cc1ccccc1)[C@@H](O)CNc1ccc(C(F)(F)F)cc1` [LTC-1027, (2S,3S)-3-Amino-4-phenyl-1-((4-(trifluoromethyl)phenyl)amino)butan-2-ol] to `N[C@@H](Cc1ccccc1)[C@@H](O)CNc1ccc(OC(F)(F)F)cc1` [LTC-1028, (2S,3S)-3-Amino-4-phenyl-1-((4-(trifluoromethoxy)phenyl)amino)butan-2-ol], the viability at 25 µM falls from 75.5 ± 3.25% to 59.3 ± 3.42%.

Test system: E. histolytica
Assay: E. histolytica viability, ATP luminescence (Cell titer glo)
Type: cell-based, Entamoeba histolytica
Details: Entamoeba histolytica; read-out: viability, E.histolytica (2.5 µM)
Procedure: Entamoeba histolytica (strain B2-5) was passaged in TY-1 medium (Trypticase peptone BBL, Yeast extract BBL, glucose, NaCl, K2HPO4, KH2PO4, cysteine, ascorbic acid, ammonium iron citrate, adult bovine serum, Diamond tween 80, penicillin G, amikacin (pH:6.8)) and kept in 37°C incubator in completely filled tubes with closed lid.
Viability of E. histolytica was assayed via a luminescence assay based on ATP quantification in the live cells. Briefly, 2.5x10^4 cell/ml were exposed to 25 μM of compounds in 96 well plates (non-transparent, tissue culture treated, flat bottom; SPL Life Sciences) in triplicate for 48h. Plates were incubated in sealed anaerobic bags (Oxoid AGS) together with an Anaerogen compact bag (Thermo Scientific) and anaerobic indicator (Thermo Scientific) at 37°C. Then, Cell titer glo reagent (Promega) was added to the reaction (1:5) according to manufacturers’ instruction. After 15 min of orbital shaking, followed by 10 min incubation at RT, ATP-bioluminescence was quantified at RT using a Synergy H1 plate reader (Synergy H1, BioTek). Metronidazole was included as control drug in all the assays for E. histolytica. Test compounds indicating significant growth reduction in the primary screen were subjected to potency determination. These secondary screens were essentially carried out as detailed above, but with a 9 to 16-point concentration range of the test compounds spanning 0.01–100 μM.

`N[C@@H](Cc1ccccc1)[C@@H](O)CNc1ccc(C(F)(F)F)cc1` [LTC-1027, (2S,3S)-3-Amino-4-phenyl-1-((4-(trifluoromethyl)phenyl)amino)butan-2-ol] and `N[C@@H](Cc1ccccc1)[C@@H](O)CNc1ccc(OC(F)(F)F)cc1` [LTC-1028, (2S,3S)-3-Amino-4-phenyl-1-((4-(trifluoromethoxy)phenyl)amino)butan-2-ol] are within error of each other in viability at 2.5 µM: 79.1 ± 9.1% for the first, 71.9 ± 4.72% for the second.

Same assay, conditions: Entamoeba histolytica; read-out: viability, E.histolytica (25 µM)

Compared with `N[C@@H](Cc1ccccc1)[C@@H](O)CNc1ccc(C(F)(F)F)cc1` [LTC-1027, (2S,3S)-3-Amino-4-phenyl-1-((4-(trifluoromethyl)phenyl)amino)butan-2-ol], `N[C@@H](Cc1ccccc1)[C@@H](O)CNc1ccc(OC(F)(F)F)cc1` [LTC-1028, (2S,3S)-3-Amino-4-phenyl-1-((4-(trifluoromethoxy)phenyl)amino)butan-2-ol] is higher in viability at 25 µM: 2.09 ± 3.63% for the first, 37.8 ± 19.9% for the second.

Test system: L. infantum promastigotes
Assay: L. infantum promastigote viability, resazurin reduction
Type: cell-based, Leishmania infantum
Details: Leishmania infantum; 2.5 µM; sheet LTC_compound_viability; value ± spread; read-out: viability, L. infantum promastigote (2.5 µM)
From the text: (§2) The infectivity of the parasites was boosted by passaging in Balb/c mice and culturing the infected lymph nodes after six weeks. L. infantum (MHOM / BR / 76 / M4192) parasite was passaged in the same media formulation with 0.5% urine.

`N[C@@H](Cc1ccccc1)[C@@H](O)CNc1ccc(C(F)(F)F)cc1` [LTC-1027, (2S,3S)-3-Amino-4-phenyl-1-((4-(trifluoromethyl)phenyl)amino)butan-2-ol] and `N[C@@H](Cc1ccccc1)[C@@H](O)CNc1ccc(OC(F)(F)F)cc1` [LTC-1028, (2S,3S)-3-Amino-4-phenyl-1-((4-(trifluoromethoxy)phenyl)amino)butan-2-ol] are within error of each other in viability at 2.5 µM: 77.9 ± 1.82% for the first, 78.3 ± 1.53% for the second.

Same assay, conditions: Leishmania infantum; 25 µM; sheet LTC_compound_viability; value ± spread; read-out: viability, L. infantum promastigote (25 µM)

`N[C@@H](Cc1ccccc1)[C@@H](O)CNc1ccc(C(F)(F)F)cc1` [LTC-1027, (2S,3S)-3-Amino-4-phenyl-1-((4-(trifluoromethyl)phenyl)amino)butan-2-ol] and `N[C@@H](Cc1ccccc1)[C@@H](O)CNc1ccc(OC(F)(F)F)cc1` [LTC-1028, (2S,3S)-3-Amino-4-phenyl-1-((4-(trifluoromethoxy)phenyl)amino)butan-2-ol] are within error of each other in viability at 25 µM: 0.64 ± 0.3% for the first, 0.58 ± 0.24% for the second.

Test system: T. brucei brucei BSF
Assay: T. brucei BSF viability, resazurin reduction
Type: cell-based, Trypanosoma brucei brucei
Details: Trypanosoma brucei, 2.5 µM; read-out: viability, T.brucei (2.5 µM)
Procedure: T. brucei brucei (strain 427 Lister) blood stream form (BSF) parasites were passaged in complete HMI-9 media supplemented with 10% FCS, Pen-Strep (0.1%) and 2-mercaptoethanol (0.014 v/v) and kept in a 37° C CO2 incubator in filter-cap flasks.
as §1

First: N[C@@H](Cc1ccccc1)[C@@H](O)CNc1ccc(C(F)(F)F)cc1 [LTC-1027, (2S,3S)-3-Amino-4-phenyl-1-((4-(trifluoromethyl)phenyl)amino)butan-2-ol]
Second: N[C@@H](Cc1ccccc1)[C@@H](O)CNc1ccc(OC(F)(F)F)cc1 [LTC-1028, (2S,3S)-3-Amino-4-phenyl-1-((4-(trifluoromethoxy)phenyl)amino)butan-2-ol]
The viability at 2.5 µM of the first is lower: 11.2 ± 1.8% for the first, 19.7 ± 4.81% for the second.

Same assay, conditions: Trypanosoma brucei, 25 µM; read-out: viability, T.brucei (25 µM)

`N[C@@H](Cc1ccccc1)[C@@H](O)CNc1ccc(C(F)(F)F)cc1` [LTC-1027, (2S,3S)-3-Amino-4-phenyl-1-((4-(trifluoromethyl)phenyl)amino)butan-2-ol] and `N[C@@H](Cc1ccccc1)[C@@H](O)CNc1ccc(OC(F)(F)F)cc1` [LTC-1028, (2S,3S)-3-Amino-4-phenyl-1-((4-(trifluoromethoxy)phenyl)amino)butan-2-ol] are within error of each other in viability at 25 µM: 2.27 ± 0.89% for the first, 2.01 ± 0.92% for the second.

Test system: intracellular L. infantum amastigotes
Assay: Parasite rescue assay (intramacrophage, J774 infected with L. infantum)
Type: cell-based, Leishmania infantum
Details: J774, 25 µM; intracellular amastigote; read-out: viability, intracellular L. major amastigote (25 µM)

`N[C@@H](Cc1ccccc1)[C@@H](O)CNc1ccc(C(F)(F)F)cc1` [LTC-1027, (2S,3S)-3-Amino-4-phenyl-1-((4-(trifluoromethyl)phenyl)amino)butan-2-ol] and `N[C@@H](Cc1ccccc1)[C@@H](O)CNc1ccc(OC(F)(F)F)cc1` [LTC-1028, (2S,3S)-3-Amino-4-phenyl-1-((4-(trifluoromethoxy)phenyl)amino)butan-2-ol] are within error of each other in viability at 25 µM: 79.3 ± 16.4% for the first, 79.1 ± 22% for the second.

Test system: not listed separately
Assay: Cytotoxicity assay J774, resazurin reduction
Type: cell-based, murine
Details: mouse, J774 macrophage cells; 2.5 µM; read-out: viability, J774 (2.5 µM)
Procedure: Mammalian cell lines (J774 and HepG2) were passaged in RPMI media supplemented with MEM, Pen-Strep (1%) and 10% FCS. Cultures were kept at 37°C incubator with 5% CO2 in filter-cap flasks.
Murine macrophage cells (J774) and human hepatocyte carcinoma HepG2 cells were seeded at 0.5x10^5 cell/well in 384 well plates in triplicate, exposed to serial dilution of compounds, dispensed using an Echo 650 acoustic dispenser (Labcyte). After incubation for 72 h at 37°C, 5% CO2, cell viability was determined using fluorescence resazurin reduction assay (λEx: 550 nm; λEm: 590 nm).

`N[C@@H](Cc1ccccc1)[C@@H](O)CNc1ccc(C(F)(F)F)cc1` [LTC-1027, (2S,3S)-3-Amino-4-phenyl-1-((4-(trifluoromethyl)phenyl)amino)butan-2-ol] and `N[C@@H](Cc1ccccc1)[C@@H](O)CNc1ccc(OC(F)(F)F)cc1` [LTC-1028, (2S,3S)-3-Amino-4-phenyl-1-((4-(trifluoromethoxy)phenyl)amino)butan-2-ol] are within error of each other in viability at 72 h, 2.5 µM: 96.1 ± 4.11% for the first, 97.4 ± 5.26% for the second.

Same assay, conditions: mouse, J774 macrophage cells; 25 µM; read-out: viability, J774 (25 µM)

Going from `N[C@@H](Cc1ccccc1)[C@@H](O)CNc1ccc(C(F)(F)F)cc1` [LTC-1027, (2S,3S)-3-Amino-4-phenyl-1-((4-(trifluoromethyl)phenyl)amino)butan-2-ol] to `N[C@@H](Cc1ccccc1)[C@@H](O)CNc1ccc(OC(F)(F)F)cc1` [LTC-1028, (2S,3S)-3-Amino-4-phenyl-1-((4-(trifluoromethoxy)phenyl)amino)butan-2-ol], the viability at 72 h, 25 µM falls from 99.9 ± 8.05% to -0.47 ± 0.78%.

Test system: L. major promastigotes
Assay: L. major promastigote viability, resazurin reduction
Type: cell-based, Leishmania major
Details: Leishmania major, 72 h, read-out: viability, L.major promastigote (25 µM)
From the text: as §2

`N[C@@H](Cc1ccccc1)[C@@H](O)CNc1ccc(C(F)(F)F)cc1` [LTC-1027, (2S,3S)-3-Amino-4-phenyl-1-((4-(trifluoromethyl)phenyl)amino)butan-2-ol] and `N[C@@H](Cc1ccccc1)[C@@H](O)CNc1ccc(OC(F)(F)F)cc1` [LTC-1028, (2S,3S)-3-Amino-4-phenyl-1-((4-(trifluoromethoxy)phenyl)amino)butan-2-ol] are within error of each other in viability at 25 µM: 72.2 ± 16.2% for the first, 81.6 ± 2% for the second.

Same assay, conditions: Leishmania major; 25 µM; read-out: viability, L.major promastigote (25 µM)

First: N[C@@H](Cc1ccccc1)[C@@H](O)CNc1ccc(C(F)(F)F)cc1 [LTC-1027, (2S,3S)-3-Amino-4-phenyl-1-((4-(trifluoromethyl)phenyl)amino)butan-2-ol]
Second: N[C@@H](Cc1ccccc1)[C@@H](O)CNc1ccc(OC(F)(F)F)cc1 [LTC-1028, (2S,3S)-3-Amino-4-phenyl-1-((4-(trifluoromethoxy)phenyl)amino)butan-2-ol]
The viability at 25 µM of the first is lower: -0.24 ± 0.15% for the first, 0.32 ± 0.34% for the second.

Test system: not given
Assay: not given
Details: not given

First: N[C@@H](Cc1ccccc1)[C@@H](O)CNc1ccc(C(F)(F)F)cc1 [LTC-1027, (2S,3S)-3-Amino-4-phenyl-1-((4-(trifluoromethyl)phenyl)amino)butan-2-ol]
Second: N[C@@H](Cc1ccccc1)[C@@H](O)CNc1ccc(OC(F)(F)F)cc1 [LTC-1028, (2S,3S)-3-Amino-4-phenyl-1-((4-(trifluoromethoxy)phenyl)amino)butan-2-ol]
The melting point of the first is lower: 105 to 107 °C for the first, 112 to 114 °C for the second.
